Series [1] can be described thus: Solubility in culture media and buffers. In kind it is physicochemical.
A further series can be described thus: MTT assay. The format is cell-based. As to conditions: human, HEK-293 cells (normal reference cell line), HEK-293 (normal cells), read-out: IC50, cytotoxicity. As for the experimental part:
(§1) Therefore, the whole set of compounds were tested by using MTT assay in order to check their overall cytotoxic effect. The growth of cells was monitored after 24 and 48 h of incubation with the increased concentrations (1–100 µg/ml) of the thiosemicarbazide derivatives. […] This confirms that the compounds tested combine different mechanisms of anticancer activity, and DNA topoisomerase II inhibition is only one of them.
(§2) Cytotoxicity of the synthesised compounds were examined against a panel of the cancer cell lines, MCF-7 (estrogen-dependent human breast cancer cells), MDA-MB-231 (oestrogen-independent human breast cancer cells), SCC- 25 (squamous cell carcinoma of the tongue), FaDu (squamous cell carcinoma of the pharynx), A- 549 (human lung carcinoma), AGS (human gastric adenocarcinoma), LS-180, HT-29 (colon cancer cell lines), T98G (glioblastoma cells), A375 (melanoma cells). Human embryonic kidney (HEK-293) cells and human normal skin fibroblasts (CRL-2072) were used as reference cell lines. The investigated cell lines were obtained from American Type Culture Collection (ATCC; Manassas, VA, USA). A375, MCF-7, MDA-MB-231, T98G cells were cultured in Dulbecco’s Modified Eagle’s Medium (DMEM) (Sigma Aldrich, St. Louis, MO, USA) supplemented with 10% heat inactivated foetal bovine serum (FBS), penicillin (100 U/mL), and streptomycin (100 μg/mL). SCC-25 cells were cultured in 1:1 mixture of Dulbecco’s modified Eagle’s medium and Ham’s F12 Medium (Sigma Aldrich, St. Louis, MO, USA) supplemented with 400 ng/ml hydrocortisone, 10% FBS, penicillin (100 U/mL), and streptomycin (100 μg/mL). A549 and AGS cells were maintained in F-12K Medium (Sigma Aldrich, St. Louis, MO, USA). LS-180 and FaDu cells were cultured in Eagle’s Minimum Essential Medium. HT-29 cells were maintained in McCoy’s 5 A Medium (Sigma Aldrich, St. Louis, MO, USA) supplemented with 10%FBS, penicillin (100 U/mL), and streptomycin (100 μg/mL). All the cells were maintained at 37 °C in a humidified atmosphere of 5% CO2.
(§3) The synthesised compounds were dissolved in DMSO in order to obtain stock solutions. At the day of the experiment, the suspension of cells (1 × 10^5 cells/mL) in the respective medium was applied to a 96-well plate at 100 μL per well. […] The control cells were cultured only with a medium containing 2% FBS. Cytotoxicity of DMSO was also checked at concentrations present in respective dilutions of stock solution. After 24 h (or 48 h) of incubation, 15 μL of MTT working solution (5 mg/mL in PBS) was added to each well. The plate was incubated for 3 h. Subsequently, 100 μL of 10% SDS solution was added to each well. Cells were incubated overnight at 37 °C to dissolve the precipitated formazan crystals. The concentration of the dissolved formazan was evaluated by measuring the absorbance at λ = 570 nm, using a microplate reader (Epoch, BioTek Instruments, Inc., Winooski, VT, USA). At least two independent experiments were performed in triplicates. The results of the MTT assay were expressed as mean ± SD. […] IC50 values of the investigated derivatives and standards were calculated using the IC50 calculator.[23]
(In general: Tetrazolium assays rely on reduction of a dye to a coloured formazan, in cell work by metabolically active cells.)

A further series deals with A375 (melanoma cells). As to the kind of experiment: MTT assay. As to conditions: Homo sapiens, read-out: IC50, cytotoxicity. In kind it is cell-based. As for the experimental part: as §1, §2, §3
For series [2], the system named is A549 (human lung carcinoma). As to the kind of experiment: MTT assay. The format is cell-based. As to conditions: read-out: IC50, cytotoxicity. The method, then: as §1, §2, §3
Series [3] concerns AGS (human gastric adenocarcinoma). As to the kind of experiment: MTT assay. In kind it is cell-based. As to conditions: read-out: IC50, cytotoxicity. As for the experimental part:
as §1, §2, §3

Series [4] has as its system FaDu (squamous cell carcinoma of the pharynx). As to the kind of experiment: MTT assay. As to conditions: Homo sapiens, read-out: IC50, cytotoxicity. The format is cell-based. As for the experimental part: as §1, §2, §3
Series [5] deals with HT-29 (colon cancer cell line). As to the kind of experiment: MTT assay. In kind it is cell-based. As to conditions: Homo sapiens, HT-29, MTT, read-out: IC50, cytotoxicity. The method, then: as §1, §2, §3
For series [6], the system named is LS180 (colon cancer cell line). Nature of the series: MTT assay. In kind it is cell-based. As to conditions: Homo sapiens, read-out: IC50, cytotoxicity. The method, then:
as §1, §2, §3

The subject of series [7] is MCF-7 (estrogen-dependent human breast cancer cells). As to the kind of experiment: MTT assay. The format is cell-based. As to conditions: MCF7, MCF-7, MTT, read-out: IC50, cytotoxicity. The method, then:
as §1, §2, §3

For series [8], the system named is MDA-MB-231 (estrogen-independent human breast cancer cells). As to the kind of experiment: MTT assay. In kind it is cell-based. As to conditions: MDA-MB-231, MTT, read-out: IC50, cytotoxicity. The method, then:
as §1, §2, §3

Series [9] deals with SCC-25 (squamous cell carcinoma of the tongue). As to the kind of experiment: MTT assay. The format is cell-based. As to conditions: Homo sapiens, SCC-25, MTT, read-out: IC50, cytotoxicity. As for the experimental part:
as §1, §2, §3

Series [10] relates to T98G (glioblastoma cells). Nature of the series: MTT assay. The format is cell-based. As to conditions: Homo sapiens, read-out: IC50, cytotoxicity. As for the experimental part: as §1, §2, §3

Values after ≈ are worked out from the molar mass of the structure shown. Read-outs that look alike come from different tables or passages of the source. Where only a bound is given, the exact number is not on record here.

In general, melting point refers to the temperature of the solid-liquid transition. On to `O=C(NNC(=S)Nc1ccc(F)cc1F)c1ccccc1[N+](=O)[O-]` [Compound 11, 4-(2,4-Difluorophenyl)-1-(2-nitrobenzoyl)thiosemicarbazide], for which the melting point was in the range of 182 to 184 °C. Further, the “solubility in culture media and buffers” value in series [1] is reported as “low solubility”.
`Cc1cccc(C(=O)NC(=S)NNC(=O)c2ccc(O)c([N+](=O)[O-])c2)c1` [Compound 12, 4-(3-Methylbenzoyl)-1-(4-hydroxy-3-nitrobenzoyl)thiosemicarbazide] yielded a melting point of 190 to 192 °C. For the same molecule, the “solubility in culture media and buffers” value in [1] is “low solubility”.
As a reminder, the IC50 is the concentration needed to halve the response being measured. `O=C(Cc1cccc2ccccc12)NNC(=S)NC(=O)c1ccccc1Cl` [Compound 8, 4-(2-Chlorobenzoyl)-1-[(naphth-1-yl)acetyl]thiosemicarbazide] returned a melting point of 174 to 176 °C. For the same molecule, the IC50 at 24 h in “MTT assay” (24h) is more than 100 µg/mL. The IC50 at 48 h in “MTT assay” (48h) was 23.4 µg/mL (≈ 58.9 µM). In addition, the IC50 with A375 (melanoma cells) (A-375, 24h) is more than 100 µg/mL. For the same molecule, the IC50 with A375 (melanoma cells) (A-375, 48 h) was found to be 9.45 µg/mL (≈ 23.8 µM). Also, the concentration for half-maximal inhibition (IC50) in series [2] (24h) is more than 100 µg/mL. Further, in [2] (48h), the IC50 is more than 100 µg/mL. In series [3] (24h), the IC50 was more than 100 µg/mL. Moreover, in series [3] (48 h), the half-inhibitory concentration (IC50) is more than 100 µg/mL. The IC50 in series [4] (24h) is more than 100 µg/mL. Also, in series [4] (48 h), the IC50 was found to be 12.8 µg/mL (≈ 32.2 µM). The IC50 in series [5] (24h) was more than 100 µg/mL. Besides, the IC50 in series [5] (48 h) was 14.8 µg/mL (≈ 37.1 µM). Also, the IC50 in series [6] (24h) is more than 100 µg/mL. Also, the half-inhibitory concentration (IC50) in [6] (48 h) was 41.1 µg/mL (≈ 103 µM). The half-inhibitory concentration (IC50) in series [7] (24h) is more than 100 µg/mL. Besides, in [7] (48h), the IC50 was determined as 12.7 µg/mL (≈ 32 µM). In addition, the IC50 in series [8] (24h) is more than 100 µg/mL. Further, in series [8] (48h), the half-maximal inhibitory concentration (IC50) is 17.2 µg/mL (≈ 43.3 µM). The IC50 in [9] (24h) is more than 100 µg/mL. In addition, the IC50 in series [9] (48 h) turned out to be 29.5 µg/mL (≈ 74.1 µM). Besides, in series [10] (24h), the half-maximal inhibitory concentration (IC50) came to 97.2 µg/mL (≈ 244 µM). The IC50 in series [10] (48h) came out at 11.8 µg/mL (≈ 29.7 µM).

The values above are taken from paper PMC9648375, “Identification of the first-in-class dual inhibitors of human DNA topoisomerase IIα and indoleamine-2,3-dioxygenase 1 (IDO 1) with strong anticancer properties” (Journal of Enzyme Inhibition and Medicinal Chemistry, 2022).
